Where two headings read alike, the source gives them in different places. Marks after values point to notes of the source that are not given here. Some results are limits rather than exact numbers.

Series [1] has as its system Strongyloides stercoralis infective larvae. In words: microbe, parasite or virus in culture. The note with it: for Relative activity (RA), mortality: RA of Compound (1) used as reference; for Lt50 (hours) ±95% Fiducial limits (FL), mortality time: S. stercoralis infective larvae; for mortality at 0.6 % strength: Strongyloides stercoralis, read-out: Larvae killed (mortality). In kind it is cell-based. As to the method:
(§1) Coproculture of about 30 g of fresh, moistened canine faeces was conducted using granular charcoal (1:1 v:v) in sealed 10 cm diameter Petri dishes. Cultures were maintained at 26° C. under semi-lighted conditions. S. stercoralis filariform larvae typically migrated to the surface of the culture and eventually into water droplets that condensed on the inner surface of the lid. Larvae appearing within 2 days were mostly those accruing from the homogonic cycle and usually occurred in insufficient numbers for bioassay. After five to eight days had elapsed free-living adult worms had effected a 50-fold increase in the population density (heterogonic cycle).
The lethality of the tested compounds was evaluated by incubating larvae obtained as in Example 1 in suspensions containing 0.6% of Compound (1) as the active ingredient (AI).
The mortality of the larvae was assessed by a dye exclusion test such as have been used successfully to indicate viability in parasitic platyhelminths. (See Halton & Arme (1971) Exp. Parasit. 30:54; Robinson & Arme (1985) Ann. Trop. Med. & Parasit. 79:17.) Similar testing was applied to S. stercoralis larvae. In these tests, use of
0.01% v/v eosin in LNSS (ELNSS) in an eosin-exclusion test indicated death of larvae in less than 10 minutes and had no effect on healthy individuals.

Series [2] shares this test system. The series is described as follows: Immobilisation of S. stercoralis infective larvae incubated in 0.6% AI suspensions. It is filed as cell-based. The note with it: for Relative activity (RA), immobilisation / Larvae immobilized: 0.6% AI; for Relative activity (RA), immobilisation: RA of albendazole used as reference; for It50 (hours) ±95% Fiducial limits (FL), immobilisation time: 0.6% active ingredient, S. stercoralis infective larvae; for Larvae immobilized: within one hour's exposure. The method, then: as §1
The effectiveness of the tested compounds was evaluated by incubating larvae obtained as in Example 1 in suspensions containing 0.6% of Compound (1) as the active ingredient (AI). Incubation times were 1, 2, 3, 4, 5, 6, 24, 48, 72, and 96 hours. Three (3) replicates were run in each assay, using >>100 larvae per replicate.
The anthelmintic effectiveness of Compound (1) and of three commercial anthelmintics, namely albendazole, thiabendazole, and ivermectin, was evaluated, and the results are summarized in Table 1. Compound (1) immobilized 100% of the larvae within one hour's exposure. This was also true for ivermectin. However, similar concentrations of albendazole and thiabendazole immobilized 50% of the infective larvae only after 73.7 and 78.9 hours, respectively.

On to `CCCSc1ccc2nc(NC(=O)OC)[nH]c2c1` [Albendazole, albendazole], for which, in series [1] (0.6% AI), the “Relative activity (RA), mortality” value came to 0.02 and the “Lt50 (hours) ±95% Fiducial limits (FL), mortality time” value (“Lt50 (hours) ±95% Fiducial limits” below) turned out to be 145.3 h. The mortality (commonly the percentage killed) at 0.6 % strength in series [1] (120 h) turned out to be 37.4%. Also, in series [2], the “Relative activity (RA), immobilisation” value is 1.00 and the “It50 (hours) ±95% Fiducial limits (FL), immobilisation time” value (“It50 (hours) ±95% Fiducial limits (FL)” for short) is given as 73.7 (60.4-87.0) hours. Further, the “It50 (hours) ±95% Fiducial limits (FL)” value in series [2] (listed as albendazole) worked out at 73.7 h.
`CCCCCCCCC/C=C/C=O` [Compound (1), E-2-dodecenal]: in series [1] (0.6% AI), the “Relative activity (RA), mortality” value is given as 1.00* and the “Lt50 (hours) ±95% Fiducial limits” value was 2.2 h. The “Lt50 (hours) ±95% Fiducial limits” value in series [1] (0.6% AI, listed as Compound(1)) is reported as 2.2 (1.2-3.3) hours. Moreover, the “Fold increase in lethal activity over albendazole” value in series [1] (Lt50 basis, 0.6% AI, versus albendazole) came to 66.1 fold. Further, the “Fold increase in lethal activity over ivermectin” value in series [1] (Lt50 basis, 0.6% AI, versus ivermectin) was found to be 7.1 fold. Moreover, in series [1] (Lt50 basis, 0.6% AI, versus thiabendazole), the “Fold increase in lethal activity over thiabendazole” value is reported as 81.3 fold. In addition, the mortality at 0.6 % strength in series [1] (6 h, after six hours, 0.6% AI) was determined as 90.8%. Moreover, in series [2], the “Relative activity (RA), immobilisation” value is on record as >1.00; the “It50 (hours) ±95% Fiducial limits (FL)” value is reported as <1* hours; the Larvae immobilized is on record as 100%.
`c1ccc2[nH]c(-c3cscn3)nc2c1` [Thiabendazole]: in series [1] (0.6% AI), the “Relative activity (RA), mortality” value is listed as 0.01 and the “Lt50 (hours) ±95% Fiducial limits” value amounted to 178.9 h. In series [1] (120 h), the mortality at 0.6 % strength was found to be 14.1%. In series [2], the “Relative activity (RA), immobilisation” value was determined as 0.93 and the “It50 (hours) ±95% Fiducial limits (FL)” value is 78.9 (65.5-92.8) hours. In addition, the “It50 (hours) ±95% Fiducial limits (FL)” value in series [2] (listed as thiabendazole) was 78.9 h.
As for ivermectin, in series [1] (0.6% AI), the “Relative activity (RA), mortality” value was 0.14 and the “Lt50 (hours) ±95% Fiducial limits” value was 15.7 (12.5-18.1) hours. In addition, the “Lt50 (hours) ±95% Fiducial limits” value in series [1] (0.6% AI, listed as ivermectin) amounted to 15.7 h. Besides, the “Larvae killed (mortality)” value in series [1] (after 24 hours, 0.6% AI) is 89.0%. In addition, in series [2], the “Relative activity (RA), immobilisation” value is recorded as >1.00; the “It50 (hours) ±95% Fiducial limits (FL)” value was <1* hours; the Larvae immobilized is reported as 100%.

For the origin of these results see patent US20040214900A1, “Method of treating strongyloides infections and medicaments therefor” (priority 2003, published 2004).
